Measurements taken from the supplement of paper PMC11208160.

Assay: recombinant UMI read abundance after kanamycin selection (control-corrected) (log10(CPM+1)); higher = more efficient recombination; extreme values may be limits of the assay; sequences stand for … in AGTGCAGAGAAAATCGGCCAGTTTTCTCTGCCTGCAGTCCGCATGCCGTGGGACCCCTTGGGTTCTAACCTGTTGCCTAGATTTATGCAGCGGACTGCCTTTCTCCCAAAGTGATAAACCGG…AGGTTGGTTTCACT; site = the 11-nt donor
Procedure, shortened: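 Values, expressed as log10(CPM+1), derive from recombinant UMI counts converted to CPM, averaged across replicates and scaled by control-derived factors. Plating was with IPTG (0.07 mM) plus kanamycin or unselected, two replicates each. The screen pooled donor and donor-binding-loop pairs for the IS621 bridge recombinase in Escherichia coli.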
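Also: IS621 bridge recombinase in Escherichia coli cells against a fixed T5 target plasmid.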

| Sequence | recombinant UMI read abundance (log10) |
| --- | --- |
| CCGTTATCATGGACCGGTTTTCCCGGTAATCCGTATTTGTG (site CCGTTAACTCA) | 0.0485 |
| CCGTTATCATGGACCGGTTTTCCCGGTAATCCGTATTTGTG (site CCGTTACCTCA) | 0.00831 |
| CCGTTATCATGGACCGGTTTTCCCGGTAATCCGTATTTGTG (site CCGTTAGCTCA) | 0.0138 |
| CCGTTATCATGGACCGGTTTTCCCGGTAATCCGTATTTGTG (site CCGTTATCTCA) | 0.662 |
| CCGTTCTCATGGACCGGTTTTCCCGGTAATCCGTATTTGGA (site CCGTTCTCTTC) | 0 |
| CCGTTTACATGGACCGGTTTTCCCGGTAATCCGTATTTGGT (site CCGTTTACTAA) | 0.00739 |
| CCGTTTACATGGACCGGTTTTCCCGGTAATCCGTATTTGGT (site CCGTTTACTAC) | 0.279 |
| CCGTTTACATGGACCGGTTTTCCCGGTAATCCGTATTTGGT (site CCGTTTACTAG) | 0 |
| CCGTTTACATGGACCGGTTTTCCCGGTAATCCGTATTTGGT (site CCGTTTACTAT) | 0 |
| CCGTTTCCATGGACCGGTTTTCCCGGTAATCCGTATTTGAC (site CCGTTTCCTGT) | 0 |
| CCGTTTTCATGGACCGGTTTTCCCGGTAATCCGTATTTGCT (site CCGTTTACTAG) | 0 |
| CCGTTTTCATGGACCGGTTTTCCCGGTAATCCGTATTTGCT (site CCGTTTCCTAG) | 0.00608 |
| CCGTTTTCATGGACCGGTTTTCCCGGTAATCCGTATTTGCT (site CCGTTTGCTAG) | 0 |
| CCGTTTTCATGGACCGGTTTTCCCGGTAATCCGTATTTGCT (site CCGTTTTCTAG) | 0 |
| CCTAAAGCATGGACCGGTTTTCCCGGTAATCCGTATTTGAT (site ACTAAAGCTAT) | 0 |
| CCTAAAGCATGGACCGGTTTTCCCGGTAATCCGTATTTGAT (site CATAAAGCTAT) | 0 |
| CCTAAAGCATGGACCGGTTTTCCCGGTAATCCGTATTTGAT (site CCAAAAGCTAT) | 0 |
| CCTAAAGCATGGACCGGTTTTCCCGGTAATCCGTATTTGAT (site CCCAAAGCTAT) | 0.0148 |
| CCTAAAGCATGGACCGGTTTTCCCGGTAATCCGTATTTGAT (site CCGAAAGCTAT) | 0 |

| Sequence | recombinant UMI read abundance (log10) |
| --- | --- |
| CCTAAAGCATGGACCGGTTTTCCCGGTAATCCGTATTTGAT (site CCTAAAACTAT) | 0 |
| CCTAAAGCATGGACCGGTTTTCCCGGTAATCCGTATTTGAT (site CCTAAACCTAT) | 0.00391 |
| CCTAAAGCATGGACCGGTTTTCCCGGTAATCCGTATTTGAT (site CCTAAAGCTAA) | 0 |
| CCTAAAGCATGGACCGGTTTTCCCGGTAATCCGTATTTGAT (site CCTAAAGCTAC) | 0 |
| CCTAAAGCATGGACCGGTTTTCCCGGTAATCCGTATTTGAT (site CCTAAAGCTAG) | 0 |
| CCTAAAGCATGGACCGGTTTTCCCGGTAATCCGTATTTGAT (site CCTAAAGCTAT) | 0.14 |
| CCTAAAGCATGGACCGGTTTTCCCGGTAATCCGTATTTGAT (site CCTAAAGCTCT) | 0.00392 |
| CCTAAAGCATGGACCGGTTTTCCCGGTAATCCGTATTTGAT (site CCTAAAGCTGT) | 0 |
| CCTAAAGCATGGACCGGTTTTCCCGGTAATCCGTATTTGAT (site CCTAAAGCTTT) | 0 |
| CCTAAAGCATGGACCGGTTTTCCCGGTAATCCGTATTTGAT (site CCTAAATCTAT) | 0 |
| CCTAAAGCATGGACCGGTTTTCCCGGTAATCCGTATTTGAT (site CCTAACGCTAT) | 0.035 |
| CCTAAAGCATGGACCGGTTTTCCCGGTAATCCGTATTTGAT (site CCTAAGGCTAT) | 0 |
| CCTAAAGCATGGACCGGTTTTCCCGGTAATCCGTATTTGAT (site CCTAATGCTAT) | 0.00544 |
| CCTAAAGCATGGACCGGTTTTCCCGGTAATCCGTATTTGAT (site CCTACAGCTAT) | 0.0037 |
| CCTAAAGCATGGACCGGTTTTCCCGGTAATCCGTATTTGAT (site CCTAGAGCTAT) | 0.00698 |
| CCTAAAGCATGGACCGGTTTTCCCGGTAATCCGTATTTGAT (site CCTATAGCTAT) | 0.00347 |
| CCTAAAGCATGGACCGGTTTTCCCGGTAATCCGTATTTGAT (site CCTCAAGCTAT) | 0.00248 |
| CCTAAAGCATGGACCGGTTTTCCCGGTAATCCGTATTTGAT (site CCTGAAGCTAT) | 0 |
| CCTAAAGCATGGACCGGTTTTCCCGGTAATCCGTATTTGAT (site CCTTAAGCTAT) | 0.0074 |
